These results are taken from patent US7714146B2, “Azulene-oxindole compounds as multiple-kinase inhibitors and useful as anticancer agents” (Industrial Technology Research Institute, priority 2006, dated 2010).

Common to all, as to assay type: biochemical
Test [1] concerns the target T1, human VEGFR-2 (Val789-Val1356) (Homo sapiens, UniProt P35968).
T1 construct: human VEGFR-2 (Val789-Val1356); GST (N); purchased Cell Signaling Technology; host or cells: baculovirus expression system
Nature of the test: KDR kinase assay (HTScan VEGFR-2 kit, DELFIA). The note with it: for inhibition at 0.1 µM: compound at 0.1 μM, read-out: KDR 0.1 μM, % of inhibition relative to control; for inhibition at 1 µM: compound at 1 μM, read-out: KDR 1 μM, % of inhibition relative to control. On the procedure:
(§1) Compounds 1-100 were treated for their efficacy in inhibiting activities of FLT-3, c-KIT, KDR/Flk-1, PDGFR-beta, EGFR, and PKC kinases by biochemical DELFIA (Dissociation Enhanced Lanthanide FIA) assays according to the procedure described below. The assays were conducted by, Division of Cell Engineering, Biomedical Engineering Research Laboratories, Industrial Technology Research Institute, Bldg. 53, 195, sec. 4, Chung Hsing Rd. Chutung, Hsinchu, Taiwan 310, R.O.C.
(§2) The KDR assay was conducted following the protocol described in Protocol for HTScan® VEGFR-2 Kinase Assay Kit (Cell Signaling Technology®). The assay was conducted under the following conditions: KDR source: The GST-Kinase fusion protein was produced using a baculovirus expression system with a construct expressing human VEGFR-2 (Val789-Val1356) (GenBank Accession No. NM_002253) with an amino-terminal GST tag, substrate: 1.5 μM Gastrin Precursor Biotinylated Peptide (with Tyr87 as phosphorylation site), vehicle: 1% DMSO, pre-incubation time/temperature: 5 minutes at room temperature, incubation time/temperature: 30 minutes at room temperature, incubation buffer: 60 mM HEPES pH 7.5, 5 mM MgCl2, 5 mM MnCl2, 3 μM Na3VO4, 1.25 mM DTT, 20 μM ATP, and quantitative method: DELFIA® Assay.

Test [2] addresses T2, human FLT-3 (Arg571-Ser993) (Homo sapiens, UniProt P36888).
T2 construct: human FLT-3 (Arg571-Ser993); GST (N); purchased Cell Signaling Technology; host or cells: baculovirus expression system
T2 sequence (P36888 571-993): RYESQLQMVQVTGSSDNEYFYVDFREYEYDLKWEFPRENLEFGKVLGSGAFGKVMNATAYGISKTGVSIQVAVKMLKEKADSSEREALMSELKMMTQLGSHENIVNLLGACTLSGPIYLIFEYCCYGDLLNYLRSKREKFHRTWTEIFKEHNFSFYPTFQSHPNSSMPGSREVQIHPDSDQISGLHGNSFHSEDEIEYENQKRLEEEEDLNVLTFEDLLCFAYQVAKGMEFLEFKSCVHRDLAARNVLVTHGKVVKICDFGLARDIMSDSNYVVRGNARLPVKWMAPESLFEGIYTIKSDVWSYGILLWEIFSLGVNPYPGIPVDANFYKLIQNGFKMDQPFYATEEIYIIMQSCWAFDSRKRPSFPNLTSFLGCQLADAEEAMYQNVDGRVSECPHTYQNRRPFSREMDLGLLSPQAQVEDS
Nature of the test: FLT-3 kinase assay (HTScan kit, DELFIA). The note with it: for inhibition at 1 µM: compound at 1 μM, read-out: FLT-3 1 μM, % of inhibition relative to control; for inhibition at 0.1 µM: compound at 0.1 μM, read-out: FLT-3 0.1 μM, % of inhibition relative to control. The procedure: as §1
as §2, with “FLT-3” for “KDR”, “FLT-3” for “VEGFR-2”, “GST-kinase” for “GST-Kinase”, “FLT-3 (Arg571-Ser993)” for “VEGFR-2 (Val789-Val1356)”, “accession” for “Accession”, “NM_004119)” for “NM_002253)”

In test [3] the target is T3, human c-KIT (Thr544-Val976) (Homo sapiens, UniProt P10721).
T3 construct: human c-KIT (Thr544-Val976); GST (N); purchased Cell Signaling Technology; host or cells: baculovirus expression system
T3 sequence (P10721 544-976): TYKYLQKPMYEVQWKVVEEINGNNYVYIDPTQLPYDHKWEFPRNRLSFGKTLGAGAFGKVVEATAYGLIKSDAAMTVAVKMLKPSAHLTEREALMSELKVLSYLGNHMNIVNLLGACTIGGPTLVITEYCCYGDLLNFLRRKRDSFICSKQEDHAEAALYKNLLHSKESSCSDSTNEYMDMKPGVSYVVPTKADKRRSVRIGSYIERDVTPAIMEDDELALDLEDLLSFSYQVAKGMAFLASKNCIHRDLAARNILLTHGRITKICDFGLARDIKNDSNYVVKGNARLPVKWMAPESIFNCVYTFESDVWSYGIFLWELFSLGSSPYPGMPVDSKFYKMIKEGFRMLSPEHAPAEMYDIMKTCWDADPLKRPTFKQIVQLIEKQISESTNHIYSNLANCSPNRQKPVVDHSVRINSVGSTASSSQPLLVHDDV
Nature of the test: c-KIT kinase assay (HTScan kit, DELFIA). As to conditions: for inhibition at 0.1 µM: compound at 0.1 μM, read-out: c-KIT 0.1 μM, % of inhibition relative to control; for inhibition at 1 µM: compound at 1 μM, read-out: c-KIT 1 μM, % of inhibition relative to control. On the procedure:
as §1
as §2, with “c-KIT” for “KDR”, “c-KIT” for “VEGFR-2”, “GST-c-KIT” for “GST-Kinase”, “c-KIT (Thr544-Val976)” for “VEGFR-2 (Val789-Val1356) (GenBank Accession No. NM_002253)”, “This biotinylated peptide contains the residues surrounding Tyr-996 of KDR,” for “Gastrin Precursor Biotinylated Peptide (with Tyr87 as phosphorylation site),”

T1 sequence (P35968 789-1356): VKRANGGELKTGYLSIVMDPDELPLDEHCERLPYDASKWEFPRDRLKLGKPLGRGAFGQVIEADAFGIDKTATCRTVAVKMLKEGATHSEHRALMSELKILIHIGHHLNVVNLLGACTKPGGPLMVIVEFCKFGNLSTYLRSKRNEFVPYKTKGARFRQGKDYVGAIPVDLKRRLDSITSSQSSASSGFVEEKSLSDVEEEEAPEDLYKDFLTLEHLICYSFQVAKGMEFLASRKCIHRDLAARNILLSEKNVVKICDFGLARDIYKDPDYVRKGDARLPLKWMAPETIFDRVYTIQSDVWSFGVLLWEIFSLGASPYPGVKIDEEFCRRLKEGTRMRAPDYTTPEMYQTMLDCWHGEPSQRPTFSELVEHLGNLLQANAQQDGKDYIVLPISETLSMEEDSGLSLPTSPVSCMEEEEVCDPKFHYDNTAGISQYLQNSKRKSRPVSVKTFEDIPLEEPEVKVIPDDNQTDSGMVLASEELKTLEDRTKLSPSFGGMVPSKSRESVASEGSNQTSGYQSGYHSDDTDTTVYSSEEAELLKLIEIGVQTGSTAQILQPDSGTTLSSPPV

By inhibition is commonly meant how much of the control response was suppressed. For the compound `O=C1Nc2cc(Br)ccc2/C1=C/c1ccc2cccccc1-2` [Compound 29, 3-Azulen-1-ylmethylene-6-bromo-1,3-dihydro-indol-2-one], the inhibition at 0.1 µM was 18.5% in test [1] and 46.1% in test [3]. The figures for the inhibition at 1 µM in test [1], in test [2] and in test [3] were 48.2%, 53.3% and 46.1%, respectively.
For `O=C1Nc2ccccc2/C1=C\c1ccc2cccccc1-2` [Compound 19, 3-Azulen-1-ylmethylene-1,3-dihydro-indol-2-one], the inhibition at 0.1 µM in test [1] came to 33.8%; in test [3] it was 0.6%. The results for the inhibition at 1 µM in test [1], in test [2] and in test [3] were 22.1%, 7.6% and 0.6%, respectively.
For the compound `CN(C)Cc1c(/C=C2/C(=O)Nc3ccc(F)cc32)cc2cccccc1-2` [Compound 59, 3-(1-Dimethylaminomethyl-azulen-2-ylmethylene)-5-fluoro-1,3-dihydro-indol-2-one], the results for the inhibition at 0.1 µM in test [1], in test [2] and in test [3] were 19.9%, 43% and 24.2%, respectively. Also, the inhibition at 1 µM in test [1] was 28.5%; in test [2], 49.8%; in test [3], 24.2%.
As to `Cc1cc(C=C2C(=O)Nc3cc(C(F)(F)F)ccc32)c2ccccc(OCCCN(C)C)c1-2` [Compound 94, 3-[4-(3-Dimethylamino-propoxy)-3-methyl-azulen-1-ylmethylene]-6-trifluoromethyl-1,3-dihydro-indol-2-one], the values for the inhibition at 0.1 µM in test [1], in test [2] and in test [3] were 35.8%, 6.5% and 47.6%, respectively. The inhibition at 1 µM turned out to be 52.4% in test [1], 14.4% in test [2] and 47.6% in test [3].
For the compound `Cc1cc(C=C2C(=O)Nc3ccccc32)c2ccccc(OCCCN(C)C)c1-2` [Compound 98, 3-[4-(3-Dimethylamino-propoxy)-3-methyl-azulen-1-ylmethylene]-1,3-dihydro-indol-2-one], the inhibition at 0.1 µM in test [1] came out at 38.6%; in test [2], 46.1%; in test [3] it was 60.4%. For the same compound, the inhibition at 1 µM in test [1] is 80.3%; in test [2], 85.4%; in test [3], 60.4%.
In the case of `CCOC(=O)N1CCC(Nc2ccc3c(c2)NC(=O)/C3=C/c2cc(C)c3c(OCCCN(C)C)ccccc2-3)CC1` [Compound 97, 4-{3-[4-(3-Dimethylamino-propoxy)-3-methyl-azulen-1-ylmethylene]-2-oxo-2,3-dihydro-1H-indol-6-ylamino}-piperidine-1-carboxylic acid ethyl ester], the inhibition at 0.1 µM in test [1] worked out at 30.5%; in test [2], 19.1%; in test [3] it was 30.6%. Besides, the inhibition at 1 µM in test [1] is 41.8%; in test [2] it was 23.9%; in test [3], 30.6%.
In general, IC50 refers to the concentration needed to halve the response being measured. For `Cc1cc(C=C2C(=O)Nc3ccc(F)cc32)c2ccccc(OCCCN3CCOCC3)c1-2` (mixture of isomers) [Compound 87, 5-Fluoro-3-[3-methyl-4-(3-morpholin-4-yl-propoxy)-azulen-1-ylmethylene]-1,3-dihydro-indol-2-one], the inhibition at 0.1 µM was determined as 1.9% in test [1], 56.9% in test [2] and 71% in test [3]. The inhibition at 1 µM was 11.5% in test [1], 85.7% in test [2] and 71% in test [3]. In addition, the values for the IC50 in test [2] (read-out: FLT-3 kinase inhibition (IC50)) and in test [3] (read-out: c-KIT kinase inhibition (IC50)) were 4.8 nM and 17.8 nM, respectively.
As to `O=C1Nc2ccc(F)cc2/C1=C/c1c2cccccc-2oc1=O` [Compound 62, 5-Fluoro-3-(2-oxo-2H-cyclohepta[b]furan-3-ylmethylene)-1,3-dihydro-indol-2-one], the inhibition at 0.1 µM in test [1] came to 21.9%; in test [2], 68.3%; in test [3], 45.6%. Further, the inhibition at 1 µM in test [1] turned out to be 35.1%; in test [2], 74.9%; in test [3] it was 45.6%.
For `CCc1cc(C=C2C(=O)Nc3ccc(S(=O)(=O)NCCCN4CCN(C)CC4)cc32)c2cccccc1-2` [Compound 83, 3-(3-Ethyl-azulen-1-ylmethylene)-2-oxo-2,3-dihydro-1H-indole-5-sulfonic acid [3-(4-methyl-piperazin-1-yl)-propyl]-amide], the inhibition at 0.1 µM was found to be 20.8% in test [1], 10.5% in test [2] and 19.6% in test [3]. In addition, the inhibition at 1 µM in test [1] was 26.7%; in test [2], 17.7%; in test [3], 19.6%.
In the case of `O=C1Nc2ccc(F)cc2/C1=C\c1cc2cccccc-2c1F` [Compound 56, 5-Fluoro-3-(1-fluoro-azulen-2-ylmethylene)-1,3-dihydro-indol-2-one], the inhibition at 0.1 µM in test [1] amounted to 35.4%; in test [2], 12.6%; in test [3], 34.8%. For the same compound, the inhibition at 1 µM is 34.2% in test [1], 53% in test [2] and 34.8% in test [3].
As for `O=C1Nc2ccc(F)cc2/C1=C\c1ccc2cccc-2cc1` [Compound 53, 3-Azulen-6-ylmethylene-5-fluoro-1,3-dihydro-indol-2-one], the inhibition at 0.1 µM in test [1] was 16.3%; in test [2] it was 30.6%; in test [3], 39.8%. Also, the figures for the inhibition at 1 µM in test [1], in test [2] and in test [3] were 20.1%, 52.7% and 39.8%, respectively.
`CCOC(=O)N1CCC(Nc2ccc3c(c2)/C(=C\c2cc(C)c4c(OCCCN(C)C)ccccc2-4)C(=O)N3)CC1` [Compound 85, 4-{3-[4-(3-Dimethylamino-propoxy)-3-methyl-azulen-1-ylmethylene]-2-oxo-2,3-dihydro-1H-indol-5-ylamino}-piperidine-1-carboxylic acid ethyl ester]: the inhibition at 1 µM in test [1] is 4.4%; in test [2], 2%; in test [3], 2.4%. For the same compound, the inhibition at 0.1 µM in test [3] turned out to be 2.4%.
With `COc1ccc2c(c1)NC(=O)/C2=C/c1ccc2cccccc1-2` [Compound 30, 3-Azulen-1-ylmethylene-6-methoxy-1,3-dihydro-indol-2-one], the inhibition at 0.1 µM in test [1] is 9.5%; in test [2], 7.3%; in test [3], 26.9%. Also, the figures for the inhibition at 1 µM in test [1], in test [2] and in test [3] were 15.6%, 34.6% and 26.9%, respectively.
